Columns and labels:
[1] = system: S. cerevisiae; assay: Antifungal microdilution broth assay, S. cerevisiae; format: cell-based; conditions: Saccharomyces cerevisiae; Table 5
From the text: (§1) A microdilution broth method (CLSI, Reference Method for Broth Dilution Antifungal Susceptibility Testing of Yeasts, Approved Standard-Third Edition, Clinical Laboratory Standards Institute, Wayne, Pa., 2008) was followed with some modifications for the testing of potential antifungal compounds Corning CellGro RPMI 1640 with glutamine, without bicarbonate buffer, with phenol red (RPMI; Sigma-Aldrich) was used as the base medium for testing. A 1 M solution of morpholinepropanesulfonic acid (MOPS; Sigma-Aldrich) was added to the RPMI to a final concentration of 0.165 M for buffering (RPMI-MOPS). This medium was adjusted to a pH of 7.0 with 10 M NaOH and filter sterilized.
(§2) PrestoBlue® (Life Technologies, Invitrogen, Carlsbad, Calif.), a resazurin-based cell viability reagent that, in metabolically active cells, is reduced from blue, non-fluorescent resazurin, to red, fluorescent resorufin, was used to assess inhibition of yeast growth by the aurones. Reduction of the compound from resazurin to resorufin is proportional to the number of metabolically active cells and can be quantified by measuring relative fluorescence units (RFUs). […]
(§3) IC50 determination was calculated using GraphPad Prism version 7.01 for Windows (GraphPad Software, Inc., La Jolla, Calif.) from the RFUs at dilution points. […]

[2] = system: T. rubrum; assay: Antifungal microdilution broth assay, T. rubrum; format: cell-based; conditions: Trichophyton rubrum; Table 5
From the text: as §1, §2, §3

[3] = system: Cryptococcus neoformans (Cn); assay: CLSI micro-dilution inhibition / MIC, Cryptococcus neoformans; format: cell-based; conditions: running text b175, read-out: MIC against Cryptococcus neoformans
Protocol: C. neoformans (strain 1199s) was prepared following CLSI guidelines for the organism (CLSI, Reference Method for Broth Dilution Antifungal Susceptibility Testing of Yeasts, Approved Standard-Third. Edition, Clinical Laboratory Standards Institute, Wayne, Pa., 2008).
The A27-M2 CLSI standard micro-dilution method was used to screen an aurone library (MTSU Department of Chemistry) for inhibition of Cryptococcus neoformans (Cn). Each aurone was screened in triplicate. […] Toxicity assays were conducted on human THP1 macrophages and L6 rat fibroblasts.
The inhibition of Cn strains and C. gattii strains by Aurone 9051 (also referred to as “Aurone X”) was characterized in different medias (including RPMI 1640 (Standard), RPMI 1640+MOPS, Asparagine media, minimal media, or yeast extract peptone dextrose (YPD) media), against other serotypes and strains, and at different cell concentrations. Synergy of the compounds with current drugs was characterized, and a growth curve experiment was conducted.

[4] = system: ERK, JNK, p38; assay: Western blot, MAPK phosphorylation, RAW 264.7; conditions: RAW264.7; LPS 15 min
Protocol: U0126 is a compound that inhibits MEK1/2 and was used as positive control for ERK phosphorylation inhibition (Hotokezaka, Sakai et al. 2002). Cells were lysed with radio-immunoprecipitation assay (RIPA) lysis buffer that contained a protease and phosphatase inhibitor cocktail. Cell lysates were then tested for protein concentration using a BCA protein assay and diluted with RIPA lysis buffer to normalize protein concentration in all samples. Lysates were mixed with sample loading buffer containing bromophenol blue, glycerol, SDS, and 2-mercaptoethanol. The separated proteins were then transferred onto a nitrocellulose membrane and blocked with 5% BSA in IX Tris-buffered saline with 0.1% Tween-20 for 1 h. The blots were incubated with primary antibodies at 4° C. overnight followed by incubation with HRP-conjugated secondary antibodies for 2 h at 22° C. The membranes were developed by addition of ECL substrate and images were collected with a ChemiDoc XRS+ system chemiluminescence imager (Bio-Rad, Hercules, Calif., USA). Western blot band intensity was quantified using Image Lab software (Bio-Rad, Hercules, Calif., USA). […]

[5] = system: TNFα; assay: Cytokine response by ELISA, TNFα; format: cell-based, human
Protocol: (§4) Dexamethasone is a synthetic glucocorticoid that suppresses LPS-induced pro-inflammatory cytokine expression and was used as a control (Abraham, Lawrence et al. 2006). Supernatants were collected for human cytokine ELISAs and the manufacturer's protocol was followed to assess the cytokine response. Cells remaining after the supernatant collection were tested for relative viability by Alamar Blue cytotoxicity assay as previously described.

[6] = system: NF-κB-dependent promoter; assay: pNF-κB-Luc luciferase assay, RAW 264.7; format: cell-based, murine; conditions: 50 μM, 1 h pre-treatment, LPS 6 h, RAW264.7
Protocol: Cells were lysed in 250 μl/well of luminometry lysis buffer [25 mM Tris-phosphate, 1%(w/v) BSA, 0.025%(w/v) dithiothreitol (DTT), 1% Triton X-100, 15%(v/v) glycerol, 0.1 mM EDTA, 8 mM MgCl2, 1× protease inhibitor cocktail, and 1 mM phenylmethylsulfonyl fluoride] and incubated on a shaking table at 200 rpm for 15 min. A volume of 10 μl of 25 mM ATP was added to each well, and the samples were transferred in duplicates of 100 μl to an opaque-white 96-well plate. A volume of 20 μl of 10 mM sodium pyrophosphate was added to each well prior to the addition of 100 μl of 2 mM D-luciferin. Luminescence was quantified using a SpectraMax M5 plate reader using SoftMax Pro 6.3 software (Molecular Devices, Sunnyvale, Calif., USA).

[7] = system: IL-8; assay: Cytokine response by ELISA, IL-8; format: cell-based, human; conditions: LPS-stimulated THP-1, ELISA
Protocol: as §4

Compound	IC50 [1] [µM]	IC50 [2] [µM]	melting point [°C]	MIC [3] [µM]	phosphorylation of ERK, JNK, or p38 [4]	inhibition at 20 µM ([5]; Homo sapiens, LPS-stimulated THP-1 cells, 20 μM, mean ± SD, read-out: Average % TNF-α Inhibition) [%]	suppression of TNFα expression ([5]; LPS-stimulated THP-1, ELISA, FIG. 9A, concentration not printed with the value (20-80 μM tested)) [%]	LPS-induced luciferase expression (pNF-κB-Luc) [6]	reduction of IL-8 expression [7] [%]
COc1ccc(/C=C2\Oc3c(ccc(O)c3O)C2=O)cc1O [Aurone 1009, (Z)-6,7-dihydroxy-2-(3-hydroxy-4-methoxybenzylidene)benzofuran-3(2H)-one]	26	49	275 to 280	30					
O=C1/C(=C/c2ccc(CO)o2)Oc2ccccc21 [aurone 1]					no statistically significant effect	25.3 ± 6.1	93.8	significantly inhibit LPS-induced luciferase expression	71

Source: patent US20200399238A1, “THERAPEUTIC AURONES” (MIDDLE TENNESSEE STATE UNIVERSITY, priority 2016, published 2020)
